Where two headings read alike, the source gives them in different places.
Columns and labels:
[1] = In vivo testing for agonist and/or antagonist properties (overall statement); design: species or system mice and rats; details: in words
Procedure: (§1) In vivo testing was conducted on the compounds designated herein as dl-XVIc, l-XVIc tartrate, d-XVIc tartrate, dl-XVIe, dl-XVId and dl-XVIb to determine their agonist and/or antagonist properties. The figures reported are the number of milligrams/ kilogram of body weight of compound that produced an agonist or antagonist effect in 50% of the mice and rats so tested (ED50).

[2] = tested on: phenylquinone induced writhing; assay: Agonist activity: mouse phenylquinone writhing; assay type: in vivo; details: for ED50: Mus musculus; for subcutaneous analgesic activity: in words
Procedure: as §1
^1 A 50 percent reduction in number of phenylquinone induced writhing
(Siegmund, E. A. et al., Proc. Soc. Biol. & Med. 95, 729; 1957).
(§2) ^6 All values are reported in terms of the free base even though
(§3) administered as an acid addition salt.

[3] = tested on: Straub Tail induced by oxymorphone; assay: Antagonist activity: antagonism of Straub Tail induced by oxymorphone; assay type: in vivo, mice; details: oxymorphone 2 mg./kg. sc., as free base; for ED50: Mus musculus
Procedure: (§4) . The figures reported are the number of milligrams/ kilogram of body weight of compound that produced an agonist or antagonist effect in 50% of the mice and rats so tested (ED50).
^2 Antagonism of Straub Tail induced by oxymorphone (2 mg./kg. sc.) i
as §2, §3

[4] = tested on: analgesic effect induced by morphine; assay: animal or person; assay type: in vivo, Rat; details: for ED50: Rattus norvegicus
Text: as §4
mg./kg. sc.) as measured by the rat tail flick procedure (Harris, L. S.
and Pierson, A. K., J. Pharmacol. & Expt. Therap., 143, 141; 1964).
as §2, §3

[5] = tested on: righting reflex loss induced by oxymorphone; assay: animal or person; assay type: in vivo, rats; details: for ED50: Rattus norvegicus
[6] = SC, 50 percent reduction in number of writhings, as free base, read-out: ED50, Agonist Activity, Mouse Phenylquinone Writhing, SC
[7] = SC, read-out: ED50, Antagonist Activity, Oxymorphone Straub Tail, SC
[8] = SC, morphine 15 mg./kg. sc., as free base, read-out: ED50, Antagonist Activity, Morphine Antagonism Rat Tail Flick, SC
[9] = SC, oxymorphone 1.5 mg./kg. sc., as free base, read-out: ED50, Antagonist Activity, Oxymorphone Narcosis, SC
[10] = PO, read-out: ED50, Antagonist Activity, Oxymorphone Straub Tail, PO
[11] = PO, morphine 15 mg./kg. sc., as free base, read-out: ED50, Antagonist Activity, Morphine Antagonism Rat Tail Flick, PO
[12] = SC, 50 percent reduction in number of writhings, as free base
[13] = PO, 50 percent reduction in number of writhings, as free base, read-out: ED50, Agonist Activity, Mouse Phenylquinone Writhing, PO
[14] = PO, oxymorphone 1.5 mg./kg. sc., as free base, read-out: ED50, Antagonist Activity, Oxymorphone Narcosis, PO

For `C#CCN1CC[C@@]2(CC=C)c3cc(O)ccc3C[C@@H]1[C@@]2(C)O` (relative stereo) [dl-XVId, 2',9β-Dihydroxy-2-propargyl-5-allyl-9α-methyl-6,7-benzomorphan], the parenteral antagonist activity [1] was “relatively potent parenteral antagonists”, the ED50 [2, 6] was greater than 40 mg/kg and the subcutaneous analgesic activity [2] was “weak subcutaneous analgesic activity”. The ED50 [3, 7] was 1.41 mg/kg and the ED50 [4, 8] was 0.14 mg/kg.
In the case of `C=CC[C@]12CCN(CC3CCC3)[C@H](Cc3ccc(O)cc31)[C@@]2(C)O` (relative stereo) [dl-XVIc, 2',9β-Dihydroxy-2-cyclobutylmethyl-5-allyl-9α-methyl-6,7-benzomorphan], the “agonist and antagonist activity upon parenteral administration” value [1] is reported as “potent agonist and antagonist activity”, the ED50 [2, 6] is reported as 0.23 mg/kg and the ED50 [3, 7] is reported as 0.72 mg/kg. The ED50 [4, 8] was 0.42 mg/kg and the ED50 [5, 9] was 0.3 mg/kg.
With `C=CC[C@]12CCN(CC3CC3)[C@H](Cc3ccc(O)cc31)[C@@]2(C)O` (relative stereo) [dl-XVIb, 2',9β-Dihydroxy-2-cyclopropylmethyl-5-allyl-9α-methyl-6,7-benzomorphan] the parenteral antagonist activity [1] was “relatively potent parenteral antagonists”, the ED50 [2, 6] was greater than 40 mg/kg and the subcutaneous analgesic activity [2] was “weak subcutaneous analgesic activity”. The ED50 [3, 10] was 16 mg/kg, the ED50 [3, 7] was 0.12 mg/kg and the ED50 [4, 8] was 0.018 mg/kg.
With `CCC[C@]12CCN(CC3CC3)[C@H](Cc3ccc(O)cc31)[C@@]2(C)O` (relative stereo) [dl-XVIe, 2',9β-Dihydroxy-2-cyclopropylmethyl-5-propyl-9α-methyl-6,7benzomorphan] the parenteral antagonist activity [1] was “relatively potent parenteral antagonists”, the ED50 [2, 6] was greater than 40 mg/kg and the subcutaneous analgesic activity [2] was “weak subcutaneous analgesic activity”. It also gave an ED50 [3, 7] of 0.11 mg/kg, an ED50 [4, 11] of 6 mg/kg and an ED50 [4, 8] of 0.03 mg/kg. The ED50 [5, 9] was 0.08 mg/kg.
With “l- 2',9β-Dihydroxy-9α-methyl-5-allyl-2-cyclobutyl-6,7 -benzomorphan tartrate [l-XVIc]” the “agonist and antagonist activity upon parenteral administration” value [1] was “potent agonist and antagonist activity”, the “ED50, Agonist Activity, Mouse Phenylquinone Writhing, PO” value ([2]; PO, 50 percent reduction in number of writhings, as free base) was 8 mg/kg and the “ED50, Agonist Activity, Mouse Phenylquinone Writhing, SC” value (“ED50, Agonist Activity … SC” for short) [2, 12] was 0.055 mg/kg. The “ED50, Antagonist Activity, Oxymorphone Straub Tail, SC” value (from here on “ED50 … Oxymorphone Straub Tail, SC”) ([3]; SC) was 0.43 mg/kg, the “ED50, Antagonist Activity, Morphine Antagonism Rat Tail Flick, PO” value ([4]; rat, in vivo, po) was 14.1 mg/kg and the “ED50, Antagonist Activity, Morphine Antagonism Rat Tail Flick, SC” value ([4]; rat, in vivo, sc) was 0.08 mg/kg. For the same compound, the “ED50, Antagonist Activity, Oxymorphone Narcosis, SC” value ([5]; rat, in vivo, sc) was 0.05 mg/kg.
With `C=CCN1CC[C@]23c4c5ccc(O)c4O[C@H]2[C@@H](O)C=C[C@H]3[C@H]1C5` [Nalorphine] the ED50 [2, 13] was 15 mg/kg, the ED50 [2, 6] was 0.77 mg/kg and the ED50 [3, 10] was greater than 64 mg/kg. The ED50 [4, 11] was 22.1 mg/kg, the ED50 [4, 8] was 0.38 mg/kg and the ED50 [5, 14] was 5.4 mg/kg. It also gave an ED50 [5, 9] of 0.58 mg/kg.
In the case of `C=CCC12CCN(CC3CCC3)C(Cc3ccc(O)cc31)C2(C)O.O=C(O)C(O)C(O)C(=O)O` (stereo not drawn) [d-XVIc, d-2',9β-Dihydroxy-9α-methyl-5-allyl-2-cyclobutylmethyl-6,7-benzomorphan tartrate], the “ED50, Agonist Activity … SC” value [2, 12] is reported as greater than 40 mg/kg and the “ED50 … Oxymorphone Straub Tail, SC” value ([3]; SC) is reported as ~ 40 mg./kg.
In the case of `CC(C)=CCN1CCC2(C)c3cc(O)ccc3CC1C2C` (stereo not drawn) [Pentazocine], the ED50 [2, 13] is reported as 36 mg/kg, the ED50 [2, 6] is reported as 4.9 mg/kg and the ED50 [3, 10] is reported as 187 mg/kg. It also gave an ED50 [3, 7] of 12 mg/kg, an ED50 [4, 11] of 82.2 mg/kg and an ED50 [5, 14] of 90 mg/kg.
In the case of “l-2', 9β-Dihydroxy-9α-methyl-5-propyl-2-cyclobutyl-6,7 -benzomorphan HCl [l-XVIr]”, the “ED50, Agonist Activity … SC” value [2, 12] is reported as 0.18 mg/kg, the “ED50 … Oxymorphone Straub Tail, SC” value ([3]; SC) is reported as 1.17 mg/kg and the “ED50, Antagonist Activity, Morphine Antagonism Rat Tail Flick, SC” value ([4]; SC, morphine 15 mg./kg. sc., as free base) is reported as 0.10 mg/kg.
For `C=CCN1CC[C@]23CCCC[C@H]2[C@H]1Cc1ccc(O)cc13` [Levallorphan], the ED50 [3, 10] was 46 mg/kg, the ED50 [3, 7] was 0.29 mg/kg and the ED50 [4, 11] was 12.6 mg/kg. The ED50 [4, 8] was 0.086 mg/kg, the ED50 [5, 14] was 5.4 mg/kg and the ED50 [5, 9] was 0.32 mg/kg.
In the case of `C=CCN1CC[C@]23c4c5ccc(O)c4O[C@H]2C(=O)CC[C@@]3(O)[C@H]1C5` [Naloxone], the ED50 [2, 6] is reported as 40 mg/kg, the ED50 [3, 10] is reported as 13.1 mg/kg and the ED50 [3, 7] is reported as 0.17 mg/kg. It also gave an ED50 ([4]; po, read-out: ED50, Antagonist Activity, Morphine Antagonism Rat Tail Flick, PO) of 2.7 mg/kg, an ED50 ([4]; sc, read-out: ED50, Antagonist Activity, Morphine Antagonism Rat Tail Flick, SC) of 0.01 mg/kg and an ED50 ([5]; po, read-out: ED50, Antagonist Activity, Oxymorphone Narcosis, PO) of 0.95 mg/kg. It also gave an ED50 ([5]; sc, read-out: ED50, Antagonist Activity, Oxymorphone Narcosis, SC) of 0.02 mg/kg.
For `C[C@H]1[C@H]2Cc3ccc(O)cc3[C@]1(C)CCN2CC1CC1` [Cyclazocine], the ED50 [2, 13] was 4 mg/kg, the ED50 [2, 6] was 0.047 mg/kg and the ED50 [3, 10] was 24 mg/kg. It also gave an ED50 [3, 7] of 0.81 mg/kg, an ED50 [4, 11] of 3.7 mg/kg and an ED50 [4, 8] of 0.04 mg/kg. The ED50 [5, 14] was 2.7 mg/kg and the ED50 [5, 9] was 0.12 mg/kg.

Reference: US3966747A, “9-Hydroxy-6,7-benzomorphans” (Bristol-Myers Company, priority 1974, dated 1976)
